Results taken from US9771430B2, “Method of treating a metabolic disorder induced by obesity in a subject in need thereof by administering MK2/3 inhibitors” (THE TRUSTEES OF COLUMBIA UNIVERSITY IN THE CITY OF NEW YORK, priority 2011, dated 2017).

Tests used:
CaMKII [1] = assay type: cell-based, mouse
Method: (§1) FIG. 1A. CaMKII enzyme activity was assayed in triplicate wells of primary mouse HCs stimulated with 100 nM glucagon (Gluc) or vehicle control (Veh) for the indicated times (*P<0.05 and **P<0.01 vs. Veh; mean±S.E.M.). FIGS. 1B-1J. Extracts of HCs or liver were probed for phospho-CaMKII, total CaMKII, and β-actin by immunoblot assay. FIG. 1B. HCs were incubated with […] glucagon for the indicated times; FIG. 1C. Glucagon was added to HCs that were pre-treated for 1 h with vehicle control (Veh) or 5 μM BAPTA-AM; FIG. 1D. Glucagon was added to HCs that were pre-treated with 0.5 μM xestospongin (XesC) or to HCs from Ip3r1fl/fl mice transduced with adeno-LacZ control or adeno-Cre (bar graph=Ip3r1 mRNA levels); FIG. 1E. Glucagon was added to HCs that were pre-treated for 1 h with vehicle control (Veh) or 10 μM H89. FIG. 1F. […] FIGS. 1G-1J. In vivo experiments. In FIG. 1G, mice were treated for 30 min with 200 μg kg−1 body weight of glucagon i.p., and in FIG. 1H, mice were pre-treated with 10 pmol g−1 xestospongin C or vehicle control i.p. 4 days prior to glucagon treatment. In FIGS. 1I-1J, mice were fed ad libitum or fasted for 12 h, or fasted for 12 h and then re-fed for 4 h.
Total RNA was extracted from hepatocytes using the RNeasy kit (Qiagen). cDNA was synthesized from 2 μg total RNA using oligo (dT) and Superscript II (Invitrogen). Real-time qPCR analysis and western blotting were performed as previously described (Timmins et al., 2009). Nuclear extraction from liver was performed using the Nuclear Extraction Kit from Panomics according to the manufacturer's instructions.
Immunoblot and RT-qPCR assays were performed as previously described (Timmins et al., 2009). Total RNA was extracted from HCs using the RNeasy kit (Qiagen). cDNA was synthesized from 2 μg total RNA using oligo (dT) and Superscript II (Invitrogen). Nuclear extraction from liver was performed using the Nuclear Extraction Kit from Panomics according to the manufacturer's instructions.

CaMKII [2] = assay: Hepatic CaMKII phosphorylation in mice; assay type: in vivo, mouse
Method: as §1, with “FIGS. 1A-J. Glucagon and fasting activates hepatic CaMKII. FIG. 1A.” for “FIG. 1A.”
FIGS. 28A-G. (Related to FIGS. 1 and 22). FIG. 28A Mice were injected i.p. with the indicated doses of glucagon and sacrificed 15 min later. The livers were probed for phospho- and total CaMKII and β-actin by immunoblot. FIG. 28B Mice (n=5/group) were fed ad libitum or fasted for 12 h and then plasma was assayed for glucagon (*P=0.007; mean±S.E.M.). FIG. 28C Mice were injected i.p. with 10 pmol g^−1 xestospongin C (XesC) or vehicle control each day for 4 days and then fed ad libitum or fasted for 12 h. Liver phospho-CaMKII, total CaMKII, and β-actin levels were assayed by immunoblot. FIG. 28D Immunoblot of CaMKII in HCs transduced with adeno-LacZ vs. CA-CaMKII. FIG. 28E HCs were transduced with adeno-LacZ or KD-CaMKII. Cells were serum-depleted overnight and then assayed for CaMKII activity (*P<0.005; mean±S.E.M.). […]
Camk2g−/− mice were generated as described previously (Backs et al., 2010) and crossed onto the C57BL6/J background. […] Fasting blood glucose was measured in mice that were fasted for 12-14 h, with free access to water, using a glucose meter (One Touch Ultra, Lifescan). […] Blood glucose levels were measured over the following 2 h. […]
Camk2g^−/− mice were generated as described previously (Backs et al., 2010) and crossed onto the C57BL6/J background. ob/ob mice were obtained from Jackson Labs. […] Fasting blood glucose was measured in mice that were fasted for 12-14 h, with free access to water, using a glucose meter (One Touch Ultra, Lifescan). […] Blood glucose levels were measured over the following 2 h. […]

## C1CCC[C@H]2CCCN3CC[C@@H](CCCCCC[C@@H]4CCCN5CC[C@@H](CC1)O[C@@H]45)O[C@@H]23 [Xestospongin C]
CaMKII [1]; HCs pre-treated with inhibitor, then glucagon
  glucagon-induced CaMKII phosphorylation: significant decrease
CaMKII [2]; i.p. xestospongin C 10 pmol g−1 for 4 days, then glucagon
  glucagon-induced CaMKII phosphorylation in liver: markedly reduced
CaMKII [2]; xestospongin C treatment of the mice, 12 h fast
  fasting-induced phosphorylation of CaMKII in liver: suppressed

## glucagon: hormone used to stimulate hepatocytes and mice
CaMKII [1]; HCs treated with agonist
  phospho-CaMKII: induced
CaMKII [2]; bolus of i.p. glucagon
  hepatic CaMKII phosphorylation: induced
CaMKII [2]; i.p.
  glucagon dose capable of phosphorylating CaMKII in the liver (as low as): 1 µg/kg
